Experiment [1] addresses T1, HIV-1 RT enzyme (wild type) (Human immunodeficiency virus type 1 group M subtype B, UniProt P04585).
T1 construct: The reverse transcriptase (RT) enzyme assay has been adapted to a 96-well microtiter plate format
The experiment in a line: Reverse transcriptase (RT) enzymatic assay (IC50), PicoGreen fluorescence, wild type. It is filed as biochemical. Put shortly:
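Enzyme at ≈10 nM in 50 mM Tris/HCl pH 7.8 with 60 mM NaCl, 2 mM MgCl2, 6 mM DTT, 2 mM GSH, 0.02% Chaps; 15 min preincubation with compound at room temperature, then substrate added and run 50 min at 37 °C. EDTA quench; product DNA read by PicoGreen fluorescence.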

In experiment [2] the target is T2, HIV-1 RT resistant mutant K103N/Y181C (Human immunodeficiency virus type 1 group M subtype B, UniProt P04585, K690N/Y768C).
T2 construct: The reverse transcriptase (RT) enzyme assay has been adapted to a 96-well microtiter plate format
In words: Reverse transcriptase (RT) enzymatic assay (IC50), PicoGreen fluorescence, resistant mutant. It is filed as biochemical.

Another experiment has as its system HIV-1 (wild type). In words: P24 cellular assay (EC50), data identified with * in Table 9, wild type. It is filed as cell-based. Particulars: Human immunodeficiency virus 1. An excerpt:
(§1) P24 Cellular Assay (EC50) (Data Identified with * in Table 9).
(§2) The p24 assay is as described in WO 01/96338, the contents of which are herein incorporated by reference.
(§3) The results are listed in Table 9 as IC50(nM) and EC50 (nM).
(§4) Table legend: A=>100; B=100-50; C=<50; NT=not tested

The subject of experiment [3] is HIV-1 resistant mutant K103N/Y181C. In words: P24 cellular assay (EC50), data identified with * in Table 9, resistant mutant. It is filed as cell-based. Particulars: Human immunodeficiency virus 1, read-out: EC50 K103N/Y181C.
From the text: as §1, §2, §3, §4

[4] abbreviates: RT enzymatic assay, wild type, read-out: IC50 WT.

Data on 23 molecules can be found in patent US7642277B2, “Non-nucleoside reverse transcriptase inhibitors” (Boehringer Ingelheim International GmbH, priority 2002, dated 2010).

In general, IC50 refers to the concentration that gives 50% inhibition.

The structures appear in SMILES notation. Like-named read-outs stand apart in the source and are kept apart here.

As to `O=C(CSc1nnnn1-c1ccccc1C(F)(F)F)Nc1ccccc1[N+](=O)[O-]` [Entry 111], the IC50 in experiment [1] was 50 to 100 nM; in experiment [2], greater than 100 nM. The EC50 with HIV-1 (wild type) was less than 50 nM; in experiment [3], greater than 100 nM.
Turning to `CC(Sc1nnnn1-c1cccc2ccccc12)C(=O)Nc1ccccc1[N+](=O)[O-]` (centres unmarked) [Entry 301], the IC50 in experiment [1] is 50 to 100 nM; in experiment [2] it was greater than 100 nM. The EC50 in the experiment on HIV-1 (wild type) is less than 50 nM; in experiment [3], greater than 100 nM.
Take `Cc1ccc(-n2nnnc2SCC(=O)Nc2ccccc2[N+](=O)[O-])c(Cl)c1` [Entry 129]: the IC50 in experiment [1] was less than 50 nM; in experiment [2], greater than 100 nM. For the same molecule, the EC50 (in the experiment on HIV-1 (wild type); in experiment [3]) was less than 50 nM throughout.
Turning to `COc1ccc(-n2nnnc2SCC(=O)Nc2ccccc2[N+](=O)[O-])c(C)c1` [Entry 127], the figures for the IC50 in experiment [1] and in experiment [2] were less than 50 nM and greater than 100 nM, respectively. Besides, the EC50 is less than 50 nM with HIV-1 (wild type) and greater than 100 nM in experiment [3].
Turning to `COc1ccccc1-n1nnnc1SCC(=O)Nc1ccccc1[N+](=O)[O-]` [Entry 115], the IC50 is 50 to 100 nM in experiment [1] and greater than 100 nM in experiment [2]. The EC50 with HIV-1 (wild type) was less than 50 nM; in experiment [3], greater than 100 nM.
`Cc1cc(C)c(-n2nnnc2SCC(=O)Nc2ccccc2[N+](=O)[O-])c(C)c1` [Entry 141]: the IC50 in experiment [1] and in experiment [2] was greater than 100 nM throughout. The EC50 (in the experiment with HIV-1 (wild type); in experiment [3]) was less than 50 nM in each case.
As for `Cc1cc(Cl)ccc1-n1nnnc1SCC(=O)Nc1ccccc1[N+](=O)[O-]` [Entry 128], the IC50 in experiment [1] and in experiment [2] was greater than 100 nM throughout. For the same molecule, the values for the EC50 (with HIV-1 (wild type); in experiment [3]) were less than 50 nM and greater than 100 nM, respectively.
On to `Cc1ccc(F)cc1-n1nnnc1SCC(=O)Nc1ccccc1[N+](=O)[O-]` [Entry 135], for which the results for the IC50 in experiment [1] and in experiment [2] were less than 50 nM and greater than 100 nM, respectively. Besides, the results for the EC50 (in the experiment with HIV-1 (wild type); in experiment [3]) were less than 50 nM and greater than 100 nM, respectively.
Regarding `O=C(CSc1nnnn1-c1ccccc1Cl)Nc1ccccc1[N+](=O)[O-]` [Entry 114], the IC50 in experiment [1] is less than 50 nM; in experiment [2] it was greater than 100 nM. Further, the EC50 is less than 50 nM with HIV-1 (wild type) and greater than 100 nM in experiment [3].
With `O=C(CSc1nncn1-c1cccc2ccccc12)Nc1ccccc1[N+](=O)[O-]` [Entry 402, 2-{{4-(1-Naphthalenyl)-4H-1,2,4-triazol-3-yl}thio}-N-(2-nitrophenyl)acetamide], the 50% inhibitory concentration (IC50) is 50 to 100 nM in experiment [1] (setting [4]) and greater than 100 nM in experiment [2]. Further, the EC50 is less than 50 nM with HIV-1 (wild type) and greater than 100 nM in experiment [3].
With `Cc1cccc(-n2nnnc2SCC(=O)Nc2ccccc2[N+](=O)[O-])c1` [Entry 118], the IC50 was 50 to 100 nM in experiment [1] and greater than 100 nM in experiment [2]. For the same molecule, the values for the EC50 (with HIV-1 (wild type); in experiment [3]) were less than 50 nM and greater than 100 nM, respectively.
`O=C(CSc1nnnn1-c1ccc2c(c1)CCC2)Nc1ccccc1[N+](=O)[O-]` [Entry 105]: the IC50 in experiment [1] was less than 50 nM; in experiment [2], greater than 100 nM. Also, the EC50 in the experiment on HIV-1 (wild type) is less than 50 nM; in experiment [3] it was greater than 100 nM.
With `COc1ccc(Cl)cc1-n1nnnc1SCC(=O)Nc1ccccc1[N+](=O)[O-]` [Entry 136], the values for the IC50 in experiment [1] and in experiment [2] were 50 to 100 nM and greater than 100 nM, respectively. Further, the figures for the EC50 (in the experiment on HIV-1 (wild type); in experiment [3]) were less than 50 nM and greater than 100 nM, respectively.
Turning to `O=C(CSc1nnnn1-c1ccc2ccccc2c1)Nc1ccccc1[N+](=O)[O-]` [Entry 103], the half-inhibitory concentration (IC50) in experiment [1] is less than 50 nM; in experiment [2], greater than 100 nM. The EC50 with HIV-1 (wild type) was less than 50 nM; in experiment [3] it was greater than 100 nM.
With `O=C(CSc1nnnn1-c1cccc2c1CCCC2)Nc1ccccc1[N+](=O)[O-]` [Entry 104], the IC50 in experiment [1] is less than 50 nM; in experiment [2], greater than 100 nM. The EC50 in the experiment on HIV-1 (wild type) is less than 50 nM; in experiment [3] it was greater than 100 nM.
For the molecule `COc1cc(-n2nnnc2SCC(=O)Nc2ccccc2[N+](=O)[O-])c(Cl)cc1Cl` [Entry 133], the values for the IC50 in experiment [1] and in experiment [2] were less than 50 nM and greater than 100 nM, respectively. The EC50 with HIV-1 (wild type) is less than 50 nM; in experiment [3], greater than 100 nM.
As to `Cc1ccccc1-n1nnnc1SCC(=O)Nc1ccccc1[N+](=O)[O-]` [Entry 109], the IC50 was 50 to 100 nM in experiment [1] and greater than 100 nM in experiment [2]. Further, the figures for the EC50 (in the experiment with HIV-1 (wild type); in experiment [3]) were less than 50 nM and greater than 100 nM, respectively.
Take `Cc1cccc(-n2nnnc2SCC(=O)Nc2ccccc2[N+](=O)[O-])c1C` [Entry 122]: the figures for the IC50 in experiment [1] and in experiment [2] were less than 50 nM and greater than 100 nM, respectively. The values for the EC50 (in the experiment with HIV-1 (wild type); in experiment [3]) were less than 50 nM and greater than 100 nM, respectively.
Consider `CC(C)Oc1cc(-n2nnnc2SCC(=O)Nc2ccccc2[N+](=O)[O-])c(Cl)cc1Cl` [Entry 134], for which the IC50 was less than 50 nM in experiment [1] and greater than 100 nM in experiment [2]. Further, the EC50 in the experiment on HIV-1 (wild type) was less than 50 nM; in experiment [3], greater than 100 nM.
For `Cc1cc(Br)cc(C)c1-n1nnnc1SCC(=O)Nc1ccccc1[N+](=O)[O-]` [Entry 140], the figures for the IC50 in experiment [1] and in experiment [2] were less than 50 nM and greater than 100 nM, respectively. Moreover, the EC50 (in the experiment with HIV-1 (wild type); in experiment [3]) was less than 50 nM each time.
In the case of `Cc1cc(C)c(-n2nnnc2SCC(=O)Nc2ccccc2Cl)c(C)c1` [Entry 421], the values for the IC50 in experiment [1] (setting [4]) and in experiment [2] were less than 50 nM and greater than 100 nM, respectively. The values for the EC50 (in the experiment with HIV-1 (wild type); in experiment [3]) were less than 50 nM and greater than 100 nM, respectively.
For `O=C(CSc1nnnn1-c1cccc2ccccc12)Nc1ccc(C(=O)O)cc1Cl` [Entry 236], the IC50 is 50 to 100 nM in experiment [1] and greater than 100 nM in experiment [2]. Moreover, the EC50 (in the experiment on HIV-1 (wild type); in experiment [3]) was greater than 100 nM throughout.
Take `N#Cc1ccc(NC(=O)CSc2nnnn2-c2cccc3ccccc23)c(Cl)c1` [Entry 239]: the IC50 in experiment [1] is 50 to 100 nM; in experiment [2], greater than 100 nM. The EC50 in the experiment on HIV-1 (wild type) is less than 50 nM; in experiment [3], greater than 100 nM.
